Results published in patent publication US6346542B1, “Pesticidal composition comprising enantiomeric form of fipronil” (priority 1999, dated 2002).

What was measured:
[1] = test system: brown dog ticks (Rhipicephalus sanguineus); test: Oral efficacy against brown dog ticks on infested dogs; conditions: for ticks remaining: 23 days after administration
[2] = test system: cat fleas (Ctenocephalides felis); test: Oral efficacy against cat fleas on infested dogs; format: in vivo
dogs [3] = test: Emesis after oral administration; format: in vivo, dog; conditions: for dogs showing emesis: 20 mg/kg oral capsule, within 5 hours after administration; for emetic activity on oral administration: oral administration to animals, dose not stated
Description: Another unexpected substantial advantage is that the (S) enantiomer provides a substantial reduction in emesis when administered to an animal orally. By the term “emesis” is meant vomiting. Generally, an emetic substance elicits emesis in less than 24 hours after administration, usually less than 8 hours, more usually less than 2 hours.

dogs [4] = conditions: 10 mg/kg in dogs

**Q.** With `N#Cc1nn(-c2c(Cl)cc(C(F)(F)F)cc2Cl)c(N)c1[S@+]([O-])C(F)(F)F` [Compound B, (S)-5-amino-3-cyano-1-(2,6-dichloro-4-trifluoromethylphenyl)-4-trifluoromethylsulfinylpyrazole] as the compound, how does the “per cent (%) mortality of the arthropods, Tick” value ([1]; 1 mg/kg oral, 1 DAT) read?
**A.** Its value is 100%.

**Q.** And the “per cent (%) mortality of the arthropods, Tick” value ([1]; 1 mg/kg oral, 9 DAT)?
**A.** The value was 100%.

**Q.** And the “per cent (%) mortality of the arthropods, Tick” value ([1]; 1 mg/kg oral, 16 DAT)?
**A.** Its value is 87%.

**Q.** What about the “per cent (%) mortality of the arthropods, Tick” value ([1]; 1 mg/kg oral, 23 DAT) of the same compound?
**A.** Its value is 85%.

**Q.** What about the “per cent (%) mortality of the arthropods, Tick” value ([1]; 3 mg/kg oral, 1 DAT) of the same compound?
**A.** The value was 98%.

**Q.** What about the “per cent (%) mortality of the arthropods, Tick” value ([1]; 3 mg/kg oral, 9 DAT) of the same compound?
**A.** Its value is 99%.

**Q.** What about the “per cent (%) mortality of the arthropods, Tick” value ([1]; 3 mg/kg oral, 16 DAT) of the same compound?
**A.** The value was 75%.

**Q.** And the “per cent (%) mortality of the arthropods, Tick” value ([1]; 3 mg/kg oral, 23 DAT)?
**A.** The value was 63%.

**Q.** And the “per cent (%) mortality of the arthropods, Tick” value ([1]; 10 mg/kg oral, 1 DAT)?
**A.** Its value is 99%.

**Q.** And the “per cent (%) mortality of the arthropods, Tick” value ([1]; 10 mg/kg oral, 9 DAT)?
**A.** The value was 100%.

**Q.** And the “per cent (%) mortality of the arthropods, Tick” value ([1]; 10 mg/kg oral, 16 DAT)?
**A.** The value was 85%.

**Q.** What about the “per cent (%) mortality of the arthropods, Tick (effectiveness)” value ([1]; 10 mg/kg oral, 23 DAT) of the same compound?
**A.** Its value is 85%.

**Q.** What about the ticks remaining ([1]; 10 mg/kg oral) of the same compound?
**A.** Its ticks remaining is 15%.

**Q.** What about the “per cent (%) mortality of the arthropods, Tick” value ([1]; 20 mg/kg oral capsule, 1 DAT) of the same compound?
**A.** The value was 99%.

**Q.** And the “per cent (%) mortality of the arthropods, Tick” value ([1]; 20 mg/kg oral capsule, 9 DAT)?
**A.** The value was 97%.

**Q.** What about the “per cent (%) mortality of the arthropods, Tick” value ([1]; 20 mg/kg oral capsule, 16 DAT) of the same compound?
**A.** The value was 87%.

**Q.** What about the “per cent (%) mortality of the arthropods, Tick” value ([1]; 20 mg/kg oral capsule, 23 DAT) of the same compound?
**A.** Its value is 86%.

**Q.** What about the “per cent (%) mortality of the arthropods, Tick” value ([1]; 20 mg/kg oral capsule, 31 DAT) of the same compound?
**A.** Its value is 92%.

**Q.** And the “per cent (%) mortality of the arthropods, Flea” value (shortened to “per cent (%) mortality … Flea”) ([2]; 1 mg/kg oral, 1 DAT)?
**A.** Its value is 100%.

**Q.** What about the “per cent (%) mortality … Flea” value ([2]; 1 mg/kg oral, 9 DAT) of the same compound?
**A.** Its value is 100%.

**Q.** And the “per cent (%) mortality … Flea” value ([2]; 1 mg/kg oral, 16 DAT)?
**A.** Its value is 90%.

**Q.** And the “per cent (%) mortality … Flea” value ([2]; 1 mg/kg oral, 23 DAT)?
**A.** The value was 79%.

**Q.** And the “per cent (%) mortality … Flea” value ([2]; 3 mg/kg oral, 1 DAT)?
**A.** Its value is 100%.

**Q.** What about the “per cent (%) mortality … Flea” value ([2]; 3 mg/kg oral, 9 DAT) of the same compound?
**A.** Its value is 98%.

**Q.** What about the “per cent (%) mortality … Flea” value ([2]; 3 mg/kg oral, 16 DAT) of the same compound?
**A.** Its value is 67%.

**Q.** And the “per cent (%) mortality … Flea” value ([2]; 3 mg/kg oral, 23 DAT)?
**A.** The value was 50%.

**Q.** What about the “per cent (%) mortality … Flea” value ([2]; 10 mg/kg oral, 1 DAT) of the same compound?
**A.** The value was 100%.

**Q.** What about the “per cent (%) mortality … Flea” value ([2]; 10 mg/kg oral, 9 DAT) of the same compound?
**A.** Its value is 99%.

**Q.** What about the “per cent (%) mortality … Flea” value ([2]; 10 mg/kg oral, 16 DAT) of the same compound?
**A.** The value was 87%.

**Q.** And the “per cent (%) mortality … Flea” value ([2]; 10 mg/kg oral, 23 DAT)?
**A.** The value was 83%.

**Q.** And the “per cent (%) mortality … Flea” value ([2]; 20 mg/kg oral capsule, 1 DAT)?
**A.** The value was 100%.

**Q.** What about the “per cent (%) mortality … Flea” value ([2]; 20 mg/kg oral capsule, 9 DAT) of the same compound?
**A.** The value was 96%.

**Q.** What about the “per cent (%) mortality … Flea” value ([2]; 20 mg/kg oral capsule, 16 DAT) of the same compound?
**A.** The value was 86%.

**Q.** What about the “per cent (%) mortality … Flea” value ([2]; 20 mg/kg oral capsule, 23 DAT) of the same compound?
**A.** Its value is 88%.

**Q.** And the “per cent (%) mortality … Flea” value ([2]; 20 mg/kg oral capsule, 31 DAT)?
**A.** The value was 84%.

**Q.** And the dogs showing emesis (dogs [3])?
**A.** Its dogs showing emesis is 50%.

**Q.** What about the “emetic activity on oral administration” value (dogs [3]) of the same compound?
**A.** The value was “lower emetic activity”.

**Q.** What about the symptoms of emesis (dogs [3]; oral, dogs, at any rate (1, 3, 10 mg/kg)) of the same compound?
**A.** Its symptoms of emesis is “substantially no symptoms of emesis”.

**Q.** `N#Cc1nn(-c2c(Cl)cc(C(F)(F)F)cc2Cl)c(N)c1[S+]([O-])C(F)(F)F` (racemic) [fipronil, 5-amino-3-cyano-1-(2,6-dichloro-4-trifluoromethylphenyl)-4-trifluoromethylsulfinylpyrazole] was tested. Which “emetic activity on oral administration” value (dogs [3]) did it give?
**A.** Its value is “causes emesis”.

**Q.** Which mortality (dogs [4]) does the source give for `CC(=O)Nc1c([S@@+]([O-])C(F)(F)F)c(C#N)nn1-c1c(Cl)cc(C(F)(F)F)cc1Cl` (single isomer, unassigned) [5-acetylamino (R) enantiomer] here?
**A.** Its mortality is 33%.

**Q.** How did the “per cent (%) mortality of the arthropods, Tick” value ([1]; 1 mg/kg oral, 1 DAT) turn out when `N#Cc1nn(-c2c(Cl)cc(C(F)(F)F)cc2Cl)c(N)c1[S@@+]([O-])C(F)(F)F` [Compound C, (R)-5-amino-3-cyano-1-(2,6-dichloro-4-trifluoromethylphenyl)-4-trifluoromethylsulfinylpyrazole] was run?
**A.** The value was 100%.

**Q.** And the “per cent (%) mortality of the arthropods, Tick” value ([1]; 1 mg/kg oral, 9 DAT)?
**A.** The value was 100%.

**Q.** What about the “per cent (%) mortality of the arthropods, Tick” value ([1]; 1 mg/kg oral, 16 DAT) of the same compound?
**A.** Its value is 66%.

**Q.** And the “per cent (%) mortality of the arthropods, Tick” value ([1]; 1 mg/kg oral, 23 DAT)?
**A.** The value was 78%.

**Q.** And the “per cent (%) mortality of the arthropods, Tick” value ([1]; 3 mg/kg oral, 1 DAT)?
**A.** Its value is 93%.

**Q.** And the “per cent (%) mortality of the arthropods, Tick” value ([1]; 3 mg/kg oral, 9 DAT)?
**A.** The value was 89%.

**Q.** What about the “per cent (%) mortality of the arthropods, Tick” value ([1]; 3 mg/kg oral, 16 DAT) of the same compound?
**A.** The value was 71%.

**Q.** What about the “per cent (%) mortality of the arthropods, Tick” value ([1]; 3 mg/kg oral, 23 DAT) of the same compound?
**A.** Its value is 65%.

**Q.** And the “per cent (%) mortality of the arthropods, Tick” value ([1]; 10 mg/kg oral, 1 DAT)?
**A.** The value was 97%.

**Q.** What about the “per cent (%) mortality of the arthropods, Tick” value ([1]; 10 mg/kg oral, 9 DAT) of the same compound?
**A.** The value was 97%.

**Q.** What about the “per cent (%) mortality of the arthropods, Tick” value ([1]; 10 mg/kg oral, 16 DAT) of the same compound?
**A.** Its value is 71%.

**Q.** What about the “per cent (%) mortality of the arthropods, Tick (effectiveness)” value ([1]; 10 mg/kg oral, 23 DAT) of the same compound?
**A.** Its value is 71%.

**Q.** What about the ticks remaining ([1]; 10 mg/kg oral) of the same compound?
**A.** The ticks remaining was 29%.

**Q.** What about the “per cent (%) mortality of the arthropods, Tick” value ([1]; 20 mg/kg oral capsule, 1 DAT) of the same compound?
**A.** Its value is 97%.

**Q.** What about the “per cent (%) mortality of the arthropods, Tick” value ([1]; 20 mg/kg oral capsule, 9 DAT) of the same compound?
**A.** The value was 96%.

**Q.** And the “per cent (%) mortality of the arthropods, Tick” value ([1]; 20 mg/kg oral capsule, 16 DAT)?
**A.** The value was 85%.

**Q.** What about the “per cent (%) mortality of the arthropods, Tick” value ([1]; 20 mg/kg oral capsule, 23 DAT) of the same compound?
**A.** Its value is 77%.

**Q.** What about the “per cent (%) mortality of the arthropods, Tick” value ([1]; 20 mg/kg oral capsule, 31 DAT) of the same compound?
**A.** Its value is 81%.

**Q.** And the “per cent (%) mortality … Flea” value ([2]; 1 mg/kg oral, 1 DAT)?
**A.** The value was 100%.

**Q.** And the “per cent (%) mortality … Flea” value ([2]; 1 mg/kg oral, 9 DAT)?
**A.** Its value is 100%.

**Q.** What about the “per cent (%) mortality … Flea” value ([2]; 1 mg/kg oral, 16 DAT) of the same compound?
**A.** The value was 76%.

**Q.** What about the “per cent (%) mortality … Flea” value ([2]; 1 mg/kg oral, 23 DAT) of the same compound?
**A.** Its value is 72%.

**Q.** What about the “per cent (%) mortality … Flea” value ([2]; 3 mg/kg oral, 1 DAT) of the same compound?
**A.** Its value is 100%.

**Q.** What about the “per cent (%) mortality … Flea” value ([2]; 3 mg/kg oral, 9 DAT) of the same compound?
**A.** The value was 78%.

**Q.** And the “per cent (%) mortality … Flea” value ([2]; 3 mg/kg oral, 16 DAT)?
**A.** The value was 72%.

**Q.** What about the “per cent (%) mortality … Flea” value ([2]; 3 mg/kg oral, 23 DAT) of the same compound?
**A.** Its value is 64%.

**Q.** And the “per cent (%) mortality … Flea” value ([2]; 10 mg/kg oral, 1 DAT)?
**A.** The value was 100%.

**Q.** What about the “per cent (%) mortality … Flea” value ([2]; 10 mg/kg oral, 9 DAT) of the same compound?
**A.** The value was 95%.

**Q.** What about the “per cent (%) mortality … Flea” value ([2]; 10 mg/kg oral, 16 DAT) of the same compound?
**A.** The value was 72%.

**Q.** What about the “per cent (%) mortality … Flea” value ([2]; 10 mg/kg oral, 23 DAT) of the same compound?
**A.** The value was 86%.

**Q.** What about the “per cent (%) mortality … Flea” value ([2]; 20 mg/kg oral capsule, 1 DAT) of the same compound?
**A.** The value was 100%.

**Q.** And the “per cent (%) mortality … Flea” value ([2]; 20 mg/kg oral capsule, 9 DAT)?
**A.** The value was 86%.

**Q.** What about the “per cent (%) mortality … Flea” value ([2]; 20 mg/kg oral capsule, 16 DAT) of the same compound?
**A.** The value was 69%.

**Q.** And the “per cent (%) mortality … Flea” value ([2]; 20 mg/kg oral capsule, 23 DAT)?
**A.** Its value is 67%.

**Q.** What about the “per cent (%) mortality … Flea” value ([2]; 20 mg/kg oral capsule, 31 DAT) of the same compound?
**A.** The value was 69%.

**Q.** What about the “animals showing emesis symptoms” value (dogs [3]; 3 mg/kg oral, dogs, after 2 hours) of the same compound?
**A.** Its value is 20%.

**Q.** What about the “animals showing emesis symptoms” value (dogs [3]; 10 mg/kg oral, dogs, after 1 hour) of the same compound?
**A.** Its value is 40%.

**Q.** And the “animals showing emesis symptoms” value (dogs [3]; 10 mg/kg oral, dogs, after 3 hours)?
**A.** The value was 20%.

**Q.** And the dogs showing emesis (dogs [3])?
**A.** The dogs showing emesis was 90%.
